These results are taken from publication PMC5749684, “Tetrahydrocarbazoles are a novel class of potent P-type ATPase inhibitors with antifungal activity” (PLoS ONE, 2018).

The target in test [1] is T1, Candida albicans Pma1 (Candida albicans, UniProt P28877).
T1 construct: endogenous in cells
The experiment in a line: ATP hydrolysis inhibition, C. albicans Pma1. The class given is biochemical. The following applies: racemic compounds, n = 3. The method, then: Candida albicans microsomes were prepared from 100 mL overnight culture in YPD (10 g/L yeast extract (BD, Sparks, MD), 20 g/L Bacto peptone (BD, Sparks, MD), 20 g/L D-(+)-glucose), transferred to 1 L YPD and grown at RT, 150 rpm, for 7 h. Cells were harvested and washed in deionized water followed by centrifugation at 3360 x g. The cells were glucose-activated by the addition of 10% (w/v) D-(+)-glucose for 10 minutes while shaking. This suspension was then centrifuged at 3,360 x g for 3 minutes and 60–80 g of cells (wet weight) were resuspended in homogenization buffer (50 g/L glucose, 28.3% (v/v) glycerol, 100 mM Tris-HCl pH 7.25, 10 mM EDTA pH 8.0, 50 mM KCl, 1 mM DTT, 200 μM PMSF, 2 μg/ml Pepstatin A), and disrupted with 165 g glassbeads (500 μm diameter) in a BeadBeater (Biospec Product, Bartlesville, OK). The disrupted cells were centrifuged at 4°C for 5 and 15 minutes at 1,400 x g and 12,000 x g, respectively. The supernatant was collected and centrifuged at 251,000 x g for 1 h, and the membrane fraction was collected and homogenized in GTEK20 buffer (20% (v/v) glycerol, 10 mM Tris-HCl pH 7.25, 25 mM KCl, 0.5 mM EDTA pH 8.0, 1 mM DTT, 0.2 mM PMSF, 2 μg/mL Pepstatin A).
(§1) ATPase activity was determined by measuring the amount of liberated phosphate from ATP hydrolysis. The ATPase assay was performed in 96 well plates in a final reaction volume of 60 μL. 0.1–0.2 μg/well of DOC extracted SERCA membrane or the Na^+,K^+-ATPase was used, while 1–2.5 μg/well was used of the Pma1 membrane preparation. Reactions, including protein membrane preparation and various concentrations of exogenously added compounds, were conducted in the following buffers; Pma1 buffer: 17.5 mM MOPS-NaOH pH 7, 7 mM MgSO4, 44 mM KNO3 (vacuolar ATPase inhibitor), 22 mM NaN3 (mitochondrial ATPase inhibitor), 0.22 mM Na2MoO4 (acid phosphatase inhibitor); SERCA buffer: 9 mM MOPS-NaOH pH 7, 2.7 mM MgCl2, 0.1 mM CaCl2 and 72 mM KCl. Na^+,K^+-ATPase buffer: 30 mM MOPS-NaOH pH 7, 40 mM NaCl, 4 mM MgCl2 and 20 mM KCl. Reactions were initiated by the addition of Na-ATP to a final concentration of 2.5 mM (Pma1 and Na^+,K^+-ATPase) or 5 mM (SERCA), followed by 30 minutes incubation at 30°C. […] Absorption was measured at 860 nm after additional 30 minutes incubation at RT.

The target in test [2] is T2, Mammalian SERCA (Oryctolagus cuniculus, UniProt P04191).
T2 construct: Ca^2+ ATPase was provided in SR membranes purified by extraction with a low concentration of deoxycholate (DOC); from tissue; host or cells: sarcoplasmic reticulum membranes (rabbit)
T2 sequence (P04191 1-994 isoform P04191-2): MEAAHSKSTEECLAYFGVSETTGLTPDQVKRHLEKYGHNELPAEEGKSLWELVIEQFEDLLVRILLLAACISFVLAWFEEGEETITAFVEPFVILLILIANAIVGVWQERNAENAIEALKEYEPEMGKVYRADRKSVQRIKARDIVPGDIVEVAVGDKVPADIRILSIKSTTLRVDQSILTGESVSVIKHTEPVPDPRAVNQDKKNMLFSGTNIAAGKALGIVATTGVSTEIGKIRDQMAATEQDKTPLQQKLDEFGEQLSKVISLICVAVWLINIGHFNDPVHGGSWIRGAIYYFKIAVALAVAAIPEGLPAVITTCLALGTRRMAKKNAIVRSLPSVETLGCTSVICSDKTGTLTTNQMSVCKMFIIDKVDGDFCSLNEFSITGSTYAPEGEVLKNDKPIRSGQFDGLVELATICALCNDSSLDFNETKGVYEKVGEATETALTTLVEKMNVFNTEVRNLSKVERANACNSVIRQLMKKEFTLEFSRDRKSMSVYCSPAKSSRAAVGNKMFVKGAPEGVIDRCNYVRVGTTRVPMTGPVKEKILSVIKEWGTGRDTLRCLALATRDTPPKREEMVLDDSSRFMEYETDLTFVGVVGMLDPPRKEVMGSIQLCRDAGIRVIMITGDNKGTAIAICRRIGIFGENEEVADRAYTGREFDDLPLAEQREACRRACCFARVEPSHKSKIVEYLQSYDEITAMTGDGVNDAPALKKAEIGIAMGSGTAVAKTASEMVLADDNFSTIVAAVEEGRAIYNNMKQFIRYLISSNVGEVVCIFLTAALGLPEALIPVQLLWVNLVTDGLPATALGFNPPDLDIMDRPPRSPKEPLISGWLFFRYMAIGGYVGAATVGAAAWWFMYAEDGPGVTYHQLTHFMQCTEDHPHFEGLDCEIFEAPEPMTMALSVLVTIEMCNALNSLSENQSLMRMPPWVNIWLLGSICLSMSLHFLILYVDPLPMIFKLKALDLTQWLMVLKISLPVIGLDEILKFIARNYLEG
The test can be described thus: ATP hydrolysis inhibition, SERCA. The class given is biochemical. To be noted: rabbit SERCA, racemic compounds, n = 3.
Excerpt: All membrane batches were validated by determining ATPase activity, pH optimum and orthovanadate sensitivity. Sarco/endoplasmatic reticulum (SR) Ca^2+ ATPase was provided in SR membranes purified by extraction with a low concentration of deoxycholate (DOC) and was kindly provided by Claus E. Olesen and Jesper V. Møller, Aarhus University and prepared as described in [43]. The pig kidney Na^+,K^+-ATPase purification included a mild SDS treatment of isolated microsomes followed by a washing step and was kindly provided by Natalya Fedosova, Aarhus University and prepared as described in [44].
as §1

For test [3], the system named is Candida krusei ATCC 6258. The test can be described thus: Fungal growth inhibition, C. krusei. The class given is cell-based. To be noted: Pichia kudriavzevii, ATCC6258; MIC defined as 50% growth inhibition, 24 h, n = 3–6. The text has this:
(§2) Fungal isolates were purchased from American Type Culture Collection, except for C. glabrata strain Cg003, which was kindly provided by Julius Subik, Comenius University in Bratislava, Slovak Republic. Cg003 is a clinical isolate, characterized to be resistant to fluconazole and itraconazole due to overexpression of the multidrug resistance efflux pumps Cdr1p and Cdr2p. Saccharomyces cerevisiae (ATCC 9763), Candida albicans (ATCC 90028), Candida albicans (SC5314), Candida glabrata (ATCC 90030), Candida glabrata (Cg003) and Candida krusei (ATCC 6258) were grown in Sabouraud broth (40 g/L D-glucose, 10 g/L peptone, pH 5.6) or YPD (10 g/L yeast extract, 20 g/L Bacto-peptone, 20 g/L glucose) medium to mid log phase, aliquoted into 20% (v/v) glycerol and cryopreserved as stocks at -80°C. For each growth assay, cells from these stocks were diluted in sterile water to OD600 = 0.025, which corresponds to a final starting inoculum of 0.5–2.5 x 10^5 CFU/mL. Growth assays were carried out by pipetting 3 μL compound dissolved in DMSO, 100 μL cell suspension and 97 μL 2 x RPMI media (20.8 g/L RPMI-1640 (Sigma-Aldrich catalog number R6504) 330 mM MOPS, 36 g/L glucose) into a microtiter plate and incubating for 24 h at 34°C, followed by OD measurement at 490 nm. The minimum inhibitory concentration (MIC) was defined as 50% growth inhibition of the microorganism as this measurement best represented the antifungal activity of the compounds. Standard errors were typically below 5%.

Test [4] has as its system Candida glabrata Cg003. The experiment in a line: microbe, parasite or virus in culture. The class given is cell-based. The following applies: for MIC: Nakaseomyces glabratus, CG003, 24 h, read-out: Growth inhibition MIC Candida glabrata Cg003. The method, then:
as §2, with “Cg003 is a clinical isolate, characterized to be resistant to fluconazole and itraconazole due to overexpression of the multidrug resistance efflux pumps Cdr1p and Cdr2p.” left out, “nm.” for “nm. The minimum inhibitory concentration (MIC) was defined as 50% growth inhibition of the microorganism as this measurement best represented the antifungal activity of the compounds. Standard errors were typically below 5%.”

Converted amounts (≈) assume the structure as drawn. Where only a bound is given, the exact number is not on record here.

As usually defined, the IC50 is the concentration that inhibits the measured activity by half. A lower IC50 goes with greater potency in that assay.

T1 sequence (P28877 whole entry): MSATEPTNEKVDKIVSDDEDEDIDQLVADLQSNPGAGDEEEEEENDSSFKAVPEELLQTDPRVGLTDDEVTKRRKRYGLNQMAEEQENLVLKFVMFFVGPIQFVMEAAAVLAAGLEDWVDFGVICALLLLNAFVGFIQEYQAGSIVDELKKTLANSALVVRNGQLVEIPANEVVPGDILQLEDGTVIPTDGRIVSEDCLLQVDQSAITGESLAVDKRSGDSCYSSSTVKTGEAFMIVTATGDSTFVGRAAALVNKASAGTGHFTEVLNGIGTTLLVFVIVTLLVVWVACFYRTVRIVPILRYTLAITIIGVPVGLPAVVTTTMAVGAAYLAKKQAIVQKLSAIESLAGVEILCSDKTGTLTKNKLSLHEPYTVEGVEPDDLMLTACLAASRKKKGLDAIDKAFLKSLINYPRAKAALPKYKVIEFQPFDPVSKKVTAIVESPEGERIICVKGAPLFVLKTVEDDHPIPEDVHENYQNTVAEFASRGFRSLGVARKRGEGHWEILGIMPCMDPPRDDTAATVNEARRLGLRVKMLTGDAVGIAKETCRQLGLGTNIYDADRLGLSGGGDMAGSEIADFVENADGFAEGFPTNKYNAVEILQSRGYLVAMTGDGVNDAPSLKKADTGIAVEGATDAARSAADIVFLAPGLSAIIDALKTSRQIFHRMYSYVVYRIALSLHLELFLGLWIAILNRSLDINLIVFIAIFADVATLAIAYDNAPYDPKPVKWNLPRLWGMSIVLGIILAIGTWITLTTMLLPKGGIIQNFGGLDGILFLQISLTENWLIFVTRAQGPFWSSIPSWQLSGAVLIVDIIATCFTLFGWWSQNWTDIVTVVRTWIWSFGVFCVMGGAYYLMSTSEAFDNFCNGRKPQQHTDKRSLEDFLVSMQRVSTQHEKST

In the case of `NC1CCCc2c1[nH]c1cc(OC(F)(F)F)ccc21` (stereo not shown) [Compound 4], the IC50 in test [1] was 46 ± 14.5 µM; in test [2], 1.55 ± 0.06 µM. The values for the MIC in test [3] and in test [4] were 66 ± 16 µM (≈ 17.8 µg/mL) and 75 µM (≈ 20.3 µg/mL), respectively.

`CN1CCC(NC2CCCc3c2[nH]c2cc(OC(F)(F)F)ccc32)CC1` (stereo not shown) [Compound 5]: the IC50 in test [1] was 130 ± 32.2 µM; in test [2], 61.7 ± 18.8 µM. Moreover, the MIC in test [3] was 150 µM (≈ 55.1 µg/mL); in test [4], greater than 75 µM.

For the compound `FC(F)(F)Oc1ccc2c3c([nH]c2c1)C(NCc1ccc(Cl)cc1)CCC3` (stereo not shown) [Compound 6], the IC50 in test [1] was 3.89 ± 1.71 µM; in test [2], 0.09 ± 0.03 µM. Besides, the MIC in test [3] is 7.5 µM (≈ 2.96 µg/mL); in test [4], greater than 75 µM.

For the compound `FC(F)(F)Oc1ccc2c3c([nH]c2c1)C(NCc1ccc(Br)cc1)CCC3` (stereo not shown) [Compound 7], the IC50 in test [1] worked out at 2.47 ± 0.26 µM; in test [2] it was 0.11 ± 0.06 µM. In addition, the MIC in test [3] is 4.7 µM (≈ 2.06 µg/mL); in test [4] it was greater than 75 µM.

As to `FC(F)(F)Oc1ccc2c3c([nH]c2c1)C(NCCOc1ccc(Cl)cc1)CCC3` (stereo not shown) [Compound 8], the IC50 in test [1] was determined as 3.77 ± 1.04 µM; in test [2], 0.26 ± 0.06 µM. In addition, the MIC is 12.9 ± 9.4 µM (≈ 5.48 µg/mL) in test [3] and greater than 75 µM in test [4].

`FC(F)(F)Oc1ccc2[nH]c3c(c2c1)CCCC3NCc1ccc(-c2ccccn2)cc1` (stereo not shown) [Compound 9]: the IC50 in test [1] was 5.56 ± 1.55 µM; in test [2] it was 3.27 ± 1.89 µM. Besides, the MIC in test [3] turned out to be 7.5 ± 4.8 µM (≈ 3.28 µg/mL); in test [4] it was 23.7 µM (≈ 10.4 µg/mL). The “Antifungal activity against C. glabrata strain Cg003 (in words)” value in test [4] (strain overexpresses efflux pumps Cdr1p and Cdr2p) was “exhibited antifungal activity”.

Take `Clc1ccc2[nH]c3c(c2c1)CCCC3NCc1ccc(-c2ccccc2)cc1` (stereo not shown) [Compound 10]: the IC50 in test [1] was determined as 9.7 ± 2.15 µM; in test [2], 5.54 ± 3.16 µM. Besides, the MIC is 6.8 ± 4.6 µM (≈ 2.63 µg/mL) in test [3] and greater than 75 µM in test [4].

`Cn1c2c(c3cc(Cl)ccc31)CCCC2NCc1ccc(-c2ccccc2)cc1` (stereo not shown) [Compound 11]: the IC50 in test [1] and in test [2] was greater than 20 µM in each case. Also, the MIC in test [3] and in test [4] was greater than 20 µM each time.

Regarding `CN(Cc1ccc(-c2ccccc2)cc1)C1CCCc2c1[nH]c1ccc(Cl)cc21` (stereo not shown) [Compound 12], the IC50 in test [1] and in test [2] was greater than 20 µM throughout. In addition, the MIC in test [3] and in test [4] was greater than 20 µM each time.
